Data published in article PMC4412093, “Identification of a Novel Series of Potent TrkA Receptor Tyrosine Kinase Inhibitors” (International Journal of Medicinal Chemistry, 2012).

Experiments:
TrkA [1] = details: read-out: TrkA IC50 (reported); cited from earlier work
TrkA [2] = test system: TrkA; parameters: method as in PMID 18646745, PMID 19509272; details: read-out: TrkA EC50 (reported); cited from earlier work
TrkA human enzyme = TrkA human enzyme (Homo sapiens, UniProt P04629); experiment: TrkA kinase enzyme inhibition; type: biochemical; details: for IC50: average of ≥2 experiments; for inhibition at 0.1 µM / inhibition at 0.03 µM: average of ≥3 experiments; for inhibition at 0.1 µM: read-out: TrkA % inh. at 0.1 μM; for inhibition at 0.03 µM: 30 nM, read-out: TrkA % inh. at 30 nM
c-Met [3] = target: T1, c-Met (Homo sapiens, UniProt P08581); experiment: c-Met kinase enzyme inhibition; type: biochemical; details: average of ≥3 experiments
Description: (§1) Table 1 2-Oxo-3-phenylimidazolidine-1-carboxamide kinase inhibitors based on different scaffolds.

VEGFR2 = VEGFR2 (Homo sapiens, UniProt P35968); experiment: VEGFR2 kinase enzyme inhibition; type: biochemical; details: average of ≥3 experiments
Description: as §1

Flt3 = target: T2, Flt3 (Homo sapiens, UniProt P36888); experiment: Millipore Kinaseprofiler, Flt3; type: biochemical; details: tested at 100 nM
T2 construct: purchased Millipore (Kinaseprofiler assay service)
Procedure: (§2) Compound 5 was profiled and tested at 100 nM against 24 other kinase enzymes using Millipore's Kinaseprofiler assay services.

ALK = target: T3, ALK (Homo sapiens, UniProt Q9UM73); experiment: Millipore Kinaseprofiler, ALK; type: biochemical; details: tested at 100 nM
T3 construct: purchased Millipore (Kinaseprofiler assay service)
Procedure: as §2

Bmx = target: T4, Bmx (Homo sapiens, UniProt P51813); experiment: Millipore Kinaseprofiler, Bmx; type: biochemical; details: tested at 100 nM
T4 construct: purchased Millipore (Kinaseprofiler assay service)
Procedure: as §2

CHK1 = target: T5, CHK1 (Homo sapiens, UniProt O14757); experiment: Millipore Kinaseprofiler, CHK1; type: biochemical; details: tested at 100 nM
T5 construct: purchased Millipore (Kinaseprofiler assay service)
Procedure: as §2

cKit = target: T6, cKit (Homo sapiens, UniProt P10721); experiment: Millipore Kinaseprofiler, cKit; type: biochemical; details: tested at 100 nM
T6 construct: purchased Millipore (Kinaseprofiler assay service)
Procedure: as §2

c-Raf = target: T7, c-Raf (Homo sapiens, UniProt P04049); experiment: Millipore Kinaseprofiler, c-Raf; type: biochemical; details: tested at 100 nM
T7 construct: purchased Millipore (Kinaseprofiler assay service)
Procedure: as §2

EphB4 = target: T8, EphB4 (Homo sapiens, UniProt P54760); experiment: Millipore Kinaseprofiler, EphB4; type: biochemical; details: tested at 100 nM
T8 construct: purchased Millipore (Kinaseprofiler assay service)
Procedure: as §2

FAK = target: T9, FAK (Homo sapiens, UniProt Q05397); experiment: Millipore Kinaseprofiler, FAK; type: biochemical; details: tested at 100 nM
T9 construct: purchased Millipore (Kinaseprofiler assay service)
Procedure: as §2

GSK3β = target: T10, GSK3β (Homo sapiens, UniProt P49841); experiment: Millipore Kinaseprofiler, GSK3β; type: biochemical; details: tested at 100 nM
T10 construct: purchased Millipore (Kinaseprofiler assay service)
Procedure: as §2

Haspin = target: T11, Haspin (Homo sapiens, UniProt Q8TF76); experiment: Millipore Kinaseprofiler, Haspin; type: biochemical; details: tested at 100 nM
T11 construct: purchased Millipore (Kinaseprofiler assay service)
Procedure: as §2

IKKβ = target: T12, IKKβ (Homo sapiens, UniProt O14920); experiment: Millipore Kinaseprofiler, IKKβ; type: biochemical; details: tested at 100 nM
T12 construct: purchased Millipore (Kinaseprofiler assay service)
Procedure: as §2

JAK2 = target: T13, JAK2 (Homo sapiens, UniProt O60674); experiment: Millipore Kinaseprofiler, JAK2; type: biochemical; details: tested at 100 nM
T13 construct: purchased Millipore (Kinaseprofiler assay service)
Procedure: as §2

JAK3 = target: T14, JAK3 (Homo sapiens, UniProt P52333); experiment: Millipore Kinaseprofiler, JAK3; type: biochemical; details: tested at 100 nM
T14 construct: purchased Millipore (Kinaseprofiler assay service)
Procedure: as §2

LIMK1 = target: T15, LIMK1 (Homo sapiens, UniProt P53667); experiment: Millipore Kinaseprofiler, LIMK1; type: biochemical; details: tested at 100 nM
T15 construct: purchased Millipore (Kinaseprofiler assay service)
Procedure: as §2

MEK1 = target: T16, MEK1 (Homo sapiens, UniProt Q02750); experiment: Millipore Kinaseprofiler, MEK1; type: biochemical; details: tested at 100 nM
T16 construct: purchased Millipore (Kinaseprofiler assay service)
Procedure: as §2

PDK1 = target: T17, PDK1 (Homo sapiens, UniProt O15530); experiment: Millipore Kinaseprofiler, PDK1; type: biochemical; details: tested at 100 nM
T17 construct: purchased Millipore (Kinaseprofiler assay service)
Procedure: as §2

PI3-Kinaseβ = target: T18, PI3-Kinaseβ (Homo sapiens, UniProt P42338); experiment: Millipore Kinaseprofiler, PI3-Kinaseβ; type: biochemical; details: tested at 100 nM
T18 construct: purchased Millipore (Kinaseprofiler assay service)
Procedure: as §2

Pim-1 = target: T19, Pim-1 (Homo sapiens, UniProt P11309); experiment: Millipore Kinaseprofiler, Pim-1; type: biochemical; details: tested at 100 nM
T19 construct: purchased Millipore (Kinaseprofiler assay service)
Procedure: as §2

PKBα = target: T20, PKBα (Homo sapiens, UniProt P31749); experiment: Millipore Kinaseprofiler, PKBα; type: biochemical; details: tested at 100 nM
T20 construct: purchased Millipore (Kinaseprofiler assay service)
Procedure: as §2

Ret = target: T21, Ret (Homo sapiens, UniProt P07949); experiment: Millipore Kinaseprofiler, Ret; type: biochemical; details: tested at 100 nM
T21 construct: purchased Millipore (Kinaseprofiler assay service)
Procedure: as §2

Ron = target: T22, Ron (Homo sapiens, UniProt Q04912); experiment: Millipore Kinaseprofiler, Ron; type: biochemical; details: tested at 100 nM
T22 construct: purchased Millipore (Kinaseprofiler assay service)
Procedure: as §2

Tie2 = target: T23, Tie2 (Homo sapiens, UniProt Q02763); experiment: Millipore Kinaseprofiler, Tie2; type: biochemical; details: tested at 100 nM
T23 construct: purchased Millipore (Kinaseprofiler assay services)
Procedure: as §2

TrkB = TrkB (Homo sapiens, UniProt Q16620); experiment: TrkB kinase inhibition; type: biochemical; details: tested at 10 nM
Procedure: as §2

[4] = Rat pharmacokinetic profile; type: in vivo
Description: Compound 5 was further evaluated for its pharmacokinetic properties in the rat (Table 5).

c-Met [5] = target: T1, c-Met; experiment: Millipore Kinaseprofiler, c-Met; type: biochemical; parameters: purchased Millipore (Kinaseprofiler assay service); details: tested at 100 nM
Procedure: as §2

[6] = p.o. dose 5.25 mg/kg, dose-normalised

VEGFR2, sequence (P35968 20-1356, species assumed): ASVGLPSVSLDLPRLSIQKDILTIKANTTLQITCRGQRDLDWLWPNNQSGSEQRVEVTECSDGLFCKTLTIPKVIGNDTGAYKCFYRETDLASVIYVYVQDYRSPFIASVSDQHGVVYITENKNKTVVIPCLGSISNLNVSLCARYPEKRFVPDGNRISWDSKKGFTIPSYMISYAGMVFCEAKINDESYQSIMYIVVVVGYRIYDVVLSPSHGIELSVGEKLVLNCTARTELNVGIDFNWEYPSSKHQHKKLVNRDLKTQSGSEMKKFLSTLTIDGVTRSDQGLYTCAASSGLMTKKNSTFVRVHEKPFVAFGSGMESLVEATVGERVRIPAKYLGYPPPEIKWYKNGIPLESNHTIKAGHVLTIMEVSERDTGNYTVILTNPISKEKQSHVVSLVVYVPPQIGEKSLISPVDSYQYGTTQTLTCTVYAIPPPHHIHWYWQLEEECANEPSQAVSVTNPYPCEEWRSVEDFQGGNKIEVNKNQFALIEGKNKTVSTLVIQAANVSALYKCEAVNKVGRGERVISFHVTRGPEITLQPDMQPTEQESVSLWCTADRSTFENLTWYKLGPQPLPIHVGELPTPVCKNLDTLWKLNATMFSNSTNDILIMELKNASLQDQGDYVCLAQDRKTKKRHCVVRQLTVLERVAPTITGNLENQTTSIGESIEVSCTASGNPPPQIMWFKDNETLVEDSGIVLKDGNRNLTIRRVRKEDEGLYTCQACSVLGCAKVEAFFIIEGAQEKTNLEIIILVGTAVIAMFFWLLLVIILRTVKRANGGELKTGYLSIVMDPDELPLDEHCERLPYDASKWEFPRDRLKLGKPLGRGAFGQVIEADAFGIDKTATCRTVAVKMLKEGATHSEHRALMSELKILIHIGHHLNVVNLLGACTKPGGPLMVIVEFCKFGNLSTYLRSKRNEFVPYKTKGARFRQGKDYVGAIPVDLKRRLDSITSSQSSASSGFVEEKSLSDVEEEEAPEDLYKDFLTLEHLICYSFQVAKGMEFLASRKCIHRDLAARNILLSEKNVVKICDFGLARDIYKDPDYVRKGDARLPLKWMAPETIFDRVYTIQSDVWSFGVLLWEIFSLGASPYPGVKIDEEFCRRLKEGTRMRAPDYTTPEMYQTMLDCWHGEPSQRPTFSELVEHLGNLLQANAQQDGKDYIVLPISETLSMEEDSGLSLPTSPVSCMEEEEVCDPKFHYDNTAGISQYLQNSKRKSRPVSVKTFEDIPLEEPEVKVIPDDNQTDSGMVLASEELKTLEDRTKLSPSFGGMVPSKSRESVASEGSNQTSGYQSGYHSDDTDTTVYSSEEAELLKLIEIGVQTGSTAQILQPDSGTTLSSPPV
TrkA human enzyme, sequence (P04629 33-796): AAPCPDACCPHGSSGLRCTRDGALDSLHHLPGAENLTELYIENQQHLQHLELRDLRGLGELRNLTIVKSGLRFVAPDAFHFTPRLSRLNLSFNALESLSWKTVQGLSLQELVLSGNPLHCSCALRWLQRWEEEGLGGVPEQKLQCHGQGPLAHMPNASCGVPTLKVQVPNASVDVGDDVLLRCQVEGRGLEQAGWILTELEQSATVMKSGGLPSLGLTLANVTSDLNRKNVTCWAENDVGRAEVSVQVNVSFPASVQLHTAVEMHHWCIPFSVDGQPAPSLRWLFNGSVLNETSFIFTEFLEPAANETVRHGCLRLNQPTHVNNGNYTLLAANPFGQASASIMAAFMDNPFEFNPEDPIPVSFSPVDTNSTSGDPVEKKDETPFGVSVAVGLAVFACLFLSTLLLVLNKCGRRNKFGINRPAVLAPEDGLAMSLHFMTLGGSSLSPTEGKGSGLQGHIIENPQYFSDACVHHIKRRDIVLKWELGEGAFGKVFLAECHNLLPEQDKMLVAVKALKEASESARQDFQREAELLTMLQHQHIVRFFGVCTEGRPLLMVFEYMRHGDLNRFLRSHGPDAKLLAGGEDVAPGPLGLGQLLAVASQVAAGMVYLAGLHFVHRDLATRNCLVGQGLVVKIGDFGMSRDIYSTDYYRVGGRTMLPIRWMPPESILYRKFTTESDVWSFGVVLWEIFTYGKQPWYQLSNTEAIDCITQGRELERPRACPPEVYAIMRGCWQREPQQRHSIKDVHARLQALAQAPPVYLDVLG
T1 sequence (P08581 25-1390): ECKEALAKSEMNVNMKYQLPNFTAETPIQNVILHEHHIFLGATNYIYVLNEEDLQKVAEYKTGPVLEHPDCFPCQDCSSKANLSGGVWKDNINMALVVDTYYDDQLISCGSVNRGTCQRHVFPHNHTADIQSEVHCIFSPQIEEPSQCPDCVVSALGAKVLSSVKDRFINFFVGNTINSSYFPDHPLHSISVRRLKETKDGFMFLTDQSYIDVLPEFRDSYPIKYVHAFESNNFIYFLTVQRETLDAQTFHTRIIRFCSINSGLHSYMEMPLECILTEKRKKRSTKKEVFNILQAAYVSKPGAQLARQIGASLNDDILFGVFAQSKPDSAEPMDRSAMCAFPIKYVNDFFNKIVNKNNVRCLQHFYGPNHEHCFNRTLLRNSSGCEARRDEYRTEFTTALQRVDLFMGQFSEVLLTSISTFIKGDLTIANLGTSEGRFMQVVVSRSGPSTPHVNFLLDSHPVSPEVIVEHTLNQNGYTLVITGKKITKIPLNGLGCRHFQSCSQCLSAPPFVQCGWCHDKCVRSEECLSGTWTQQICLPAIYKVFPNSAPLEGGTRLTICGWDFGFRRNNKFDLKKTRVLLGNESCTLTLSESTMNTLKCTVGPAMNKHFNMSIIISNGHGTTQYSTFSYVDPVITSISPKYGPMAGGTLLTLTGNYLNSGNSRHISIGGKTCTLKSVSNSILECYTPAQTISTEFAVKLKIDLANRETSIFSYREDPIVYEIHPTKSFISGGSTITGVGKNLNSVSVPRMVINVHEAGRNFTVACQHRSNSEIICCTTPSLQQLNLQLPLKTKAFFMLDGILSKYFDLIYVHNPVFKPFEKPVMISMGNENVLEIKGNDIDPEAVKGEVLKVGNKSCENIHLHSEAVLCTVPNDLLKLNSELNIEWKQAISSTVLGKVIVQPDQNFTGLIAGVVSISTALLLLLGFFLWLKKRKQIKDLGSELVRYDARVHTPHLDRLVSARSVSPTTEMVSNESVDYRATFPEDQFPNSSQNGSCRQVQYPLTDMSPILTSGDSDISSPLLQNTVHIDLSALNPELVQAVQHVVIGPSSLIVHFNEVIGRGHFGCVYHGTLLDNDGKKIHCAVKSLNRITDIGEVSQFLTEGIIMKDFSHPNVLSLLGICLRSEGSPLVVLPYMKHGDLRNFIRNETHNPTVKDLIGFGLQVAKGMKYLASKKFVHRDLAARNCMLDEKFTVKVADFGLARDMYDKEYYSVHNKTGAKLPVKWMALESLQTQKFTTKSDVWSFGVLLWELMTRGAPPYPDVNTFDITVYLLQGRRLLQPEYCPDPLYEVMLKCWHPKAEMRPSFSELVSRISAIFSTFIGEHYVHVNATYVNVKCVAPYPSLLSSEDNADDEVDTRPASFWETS
T2 sequence (P36888 27-993): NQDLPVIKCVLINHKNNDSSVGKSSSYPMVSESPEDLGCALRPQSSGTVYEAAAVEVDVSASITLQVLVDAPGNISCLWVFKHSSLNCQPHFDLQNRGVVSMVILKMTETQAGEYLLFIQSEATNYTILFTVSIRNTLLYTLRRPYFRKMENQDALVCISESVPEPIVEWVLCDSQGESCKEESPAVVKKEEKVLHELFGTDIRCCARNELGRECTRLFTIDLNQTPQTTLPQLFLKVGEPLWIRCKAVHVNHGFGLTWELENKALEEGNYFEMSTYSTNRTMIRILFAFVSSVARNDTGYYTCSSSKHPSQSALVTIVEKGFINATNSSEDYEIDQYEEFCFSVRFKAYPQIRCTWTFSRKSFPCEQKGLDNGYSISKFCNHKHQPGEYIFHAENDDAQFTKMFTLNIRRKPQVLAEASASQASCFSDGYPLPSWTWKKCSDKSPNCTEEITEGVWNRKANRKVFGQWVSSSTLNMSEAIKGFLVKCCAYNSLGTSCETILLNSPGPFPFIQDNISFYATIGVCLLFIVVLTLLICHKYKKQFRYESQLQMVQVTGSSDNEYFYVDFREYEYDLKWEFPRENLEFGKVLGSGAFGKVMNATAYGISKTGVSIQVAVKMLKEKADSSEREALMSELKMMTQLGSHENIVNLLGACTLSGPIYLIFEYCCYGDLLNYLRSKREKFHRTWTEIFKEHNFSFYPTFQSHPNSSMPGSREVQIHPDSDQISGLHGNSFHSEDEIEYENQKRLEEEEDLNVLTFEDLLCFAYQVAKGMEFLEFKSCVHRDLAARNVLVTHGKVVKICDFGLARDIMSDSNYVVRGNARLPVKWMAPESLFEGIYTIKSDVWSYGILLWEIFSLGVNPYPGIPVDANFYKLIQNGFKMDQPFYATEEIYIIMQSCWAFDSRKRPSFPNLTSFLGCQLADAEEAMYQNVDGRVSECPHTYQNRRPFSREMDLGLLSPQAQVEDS
T4 sequence (P51813 whole entry): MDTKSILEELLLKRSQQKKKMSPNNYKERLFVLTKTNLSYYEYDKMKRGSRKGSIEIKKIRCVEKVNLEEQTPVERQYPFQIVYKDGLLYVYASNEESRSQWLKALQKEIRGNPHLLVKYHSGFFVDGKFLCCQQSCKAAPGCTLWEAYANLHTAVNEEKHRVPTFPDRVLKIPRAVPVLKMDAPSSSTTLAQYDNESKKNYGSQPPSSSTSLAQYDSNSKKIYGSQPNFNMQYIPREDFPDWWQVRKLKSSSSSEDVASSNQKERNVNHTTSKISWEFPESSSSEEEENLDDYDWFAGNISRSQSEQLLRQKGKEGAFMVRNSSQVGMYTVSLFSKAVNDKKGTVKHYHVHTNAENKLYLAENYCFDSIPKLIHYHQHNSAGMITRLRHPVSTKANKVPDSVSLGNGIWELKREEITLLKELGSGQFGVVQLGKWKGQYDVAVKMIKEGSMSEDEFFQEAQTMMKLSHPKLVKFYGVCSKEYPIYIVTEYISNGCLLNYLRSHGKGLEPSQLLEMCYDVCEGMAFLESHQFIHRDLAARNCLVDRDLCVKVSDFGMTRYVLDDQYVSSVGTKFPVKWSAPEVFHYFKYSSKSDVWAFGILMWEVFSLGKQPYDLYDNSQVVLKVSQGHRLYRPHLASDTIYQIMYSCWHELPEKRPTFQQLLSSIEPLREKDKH

SMILES: CC(C)Oc1cc(Nc2nc(N[C@@H](C)c3ccc(F)cc3)ncc2Cl)n[nH]1 [AZ-23]
- IC50 (TrkA [1]): < 3 nM
- EC50 (TrkA [2]): 1 nM

SMILES: O=C(NCCN1CCCC1)Nc1ccc(Oc2cccc(NC(=O)N3CCN(c4ccc(F)cc4)C3=O)c2)cn1 [Cpd 17]
- IC50 (TrkA human enzyme): 4 nM

SMILES: O=C(Nc1cc(Oc2ccc(NC(=O)N3CCN(c4ccccc4)C3=O)cc2F)ncn1)N1CCCC1 [Cpd 3]
- IC50 (c-Met [3]): 50 nM
- IC50 (VEGFR2): 150 nM
- inhibition at 0.1 µM (TrkA human enzyme): 16%

SMILES: CCn1cnc(-c2cc3nccc(Oc4ccc(NC(=O)N5CCN(c6ccccc6)C5=O)cc4F)c3s2)c1 [Cpd 1]
- IC50 (c-Met [3]): 20 nM
- IC50 (VEGFR2): 10 nM
- inhibition at 0.1 µM (TrkA human enzyme): 82%

SMILES: CC(=O)Nc1ccc(C#Cc2cccc(NC(=O)N3CCN(c4ccccc4)C3=O)c2)cn1 [Cpd 7]
- inhibition at 0.03 µM (TrkA human enzyme): 16%

SMILES: CC(=O)Nc1ccc(Oc2cccc(NC(=O)N3CCN(c4ccccc4)C3=O)c2)cn1 [Cpd 5]
- IC50 (c-Met [3]): 310 nM
- IC50 (VEGFR2): 2500 nM
- inhibition at 0.03 µM (TrkA human enzyme): 96%
- inhibition at 0.1 µM (TrkA human enzyme): 98%
- IC50 (TrkA human enzyme): 4 nM
- inhibition at 0.1 µM (Flt3): 83%
- inhibition at 0.1 µM (ALK): < 40%
- inhibition at 0.1 µM (Bmx): < 40%
- inhibition at 0.1 µM (CHK1): < 40%
- inhibition at 0.1 µM (cKit): < 40%
- inhibition at 0.1 µM (c-Raf): < 40%
- inhibition at 0.1 µM (EphB4): < 40%
- inhibition at 0.1 µM (FAK): < 40%
- inhibition at 0.1 µM (GSK3β): < 40%
- inhibition at 0.1 µM (Haspin): < 40%
- inhibition at 0.1 µM (IKKβ): < 40%
- inhibition at 0.1 µM (JAK2): < 40%
- inhibition at 0.1 µM (JAK3): < 40%
- inhibition at 0.1 µM (LIMK1): < 40%
- inhibition at 0.1 µM (MEK1): < 40%
- inhibition at 0.1 µM (PDK1): < 40%
- inhibition at 0.1 µM (PI3-Kinaseβ): < 40%
- inhibition at 0.1 µM (Pim-1): < 40%
- inhibition at 0.1 µM (PKBα): < 40%
- inhibition at 0.1 µM (Ret): < 40%
- inhibition at 0.1 µM (Ron): < 40%
- inhibition at 0.1 µM (Tie2): < 40%
- inhibition at 0.01 µM (TrkB): 40%
- clearance ([4]; in vivo, iv, i.v. dose 2.58 mg/kg, read-out: Cl i.v. (converted)): 55 mL/min/kg
- half-life ([4]; in vivo, iv, i.v. dose 2.58 mg/kg, read-out: T1/2, i.v. (converted)): 1.5 h
- Vd ([4]; in vivo, iv, i.v. dose 2.58 mg/kg, read-out: Vss i.v.): 3.7 L/kg
- bioavailability ([4]; in vivo, oral, i.v. 2.58 mg/kg, p.o. 5.25 mg/kg): 99%
- Tmax ([4]; in vivo, po, p.o. dose 5.25 mg/kg): 4 h
- N. AUC, p.o. [4, 6]: 0.83 μM.h/(mg/kg)
- N. C max, p.o. [4, 6]: 0.08 μM/(mg/kg)
- inhibition at 0.1 µM (c-Met [5]): < 40%

SMILES: CC(=O)Nc1ccc(Oc2ccc(Cl)c(NC(=O)N3CCN(c4ccccc4)C3=O)c2)cn1 [Cpd 12]
- inhibition at 0.03 µM (TrkA human enzyme): 0%

SMILES: CC(=O)Nc1ccc(Oc2cc(NC(=O)N3CCN(c4ccccc4)C3=O)ccc2C)cn1 [Cpd 10]
- inhibition at 0.03 µM (TrkA human enzyme): 6%

SMILES: Cc1ccc(Sc2cnc(Nc3cccc(Br)n3)s2)cc1C(=O)N1CCN(C(=O)CN)CC1 [Compound 20h]
- IC50 (TrkA [1]): 0.6 nM

SMILES: CNC(=O)Nc1ccc(Oc2cccc(NC(=O)N3CCN(c4ccccc4)C3=O)c2)cn1 [Cpd 15]
- IC50 (TrkA human enzyme): 5 nM

SMILES: CNC(=O)Nc1ccc(Oc2cccc(NC(=O)N3CCN(c4ccc(F)cc4)C3=O)c2)cn1 [Cpd 16]
- IC50 (TrkA human enzyme): 2 nM

SMILES: NC(=O)Nc1snc(S[C@@H]2CCCCc3ccccc32)c1C(N)=O [Compound 5n]
- IC50 (TrkA [1]): < 1 nM

SMILES: O=C(Nc1cc(Oc2ccc(NC(=O)N3CCN(c4ccccc4)C3=O)cc2F)ccn1)N1CCCC1 [Cpd 4]
- IC50 (c-Met [3]): 30 nM
- IC50 (VEGFR2): 230 nM
- inhibition at 0.1 µM (TrkA human enzyme): 49%

SMILES: CC(=O)Nc1ccc(NC(=O)Nc2cccc(NC(=O)N3CCN(c4ccccc4)C3=O)c2)cn1 [Cpd 6]
- inhibition at 0.03 µM (TrkA human enzyme): 5%

SMILES: COc1cc2nccc(Oc3ccc(NC(=O)N4CCN(c5ccccc5)C4=O)cc3F)c2cc1OC [Cpd 2]
- IC50 (c-Met [3]): 30 nM
- IC50 (VEGFR2): 10 nM
- inhibition at 0.1 µM (TrkA human enzyme): 94%

SMILES: Nc1ccc(Oc2cccc(NC(=O)N3CCN(c4ccccc4)C3=O)c2)cn1 [Cpd 13]
- IC50 (TrkA human enzyme): 20 nM

SMILES: COc1ccc(NC(=O)N2CCN(c3ccccc3)C2=O)cc1Oc1ccc(NC(C)=O)nc1 [Cpd 11]
- inhibition at 0.03 µM (TrkA human enzyme): 15%

SMILES: CC(=O)Nc1ccc(Oc2cccc(NC(=O)N3CCN(c4ccc(F)cc4)C3=O)c2)cn1 [Cpd 14]
- IC50 (TrkA human enzyme): 3 nM

SMILES: CCNC(=O)OC(C)C1c2ccccc2-c2c3c(c4c([nH]c5ccccc54)c21)CNC3=O (stereo not shown) [Compound 12a]
- IC50 (TrkA [1]): 8 nM
